These are literature values, as cited in paper PMC4844649, “A first-in-Asian phase 1 study to evaluate safety, pharmacokinetics and clinical activity of VS-6063, a focal adhesion kinase (FAK) inhibitor in Japanese patients with advanced solid tumors” (Cancer Chemotherapy and Pharmacology, 2016).

For one data set, the system named is advanced solid tumors. The following applies: cited from earlier work.
On the set-up of data set [1]: method as in earlier work. The following applies: at the higher doses, phase 1 dose-escalation ref 11, 12; cited from earlier work.
Data set [2] has as its system Tregs and CD8 + T cells in the tumor microenvironment. On the set-up: method as in PMID 26406376. The following applies: squamous cell carcinoma model ref 17; cited from earlier work.

Read-outs that look alike come from different tables or passages of the source.

With `COc1cc(C(=O)NC2CCN(C)CC2)c(F)cc1Nc1ncc(C(F)(F)F)c(Oc2cccc3c2C(=O)N(C)C3)n1` [BI 853520], the objective radiographic responses result in the data set on advanced solid tumors (phase 1 ref 11, 12) is “No objective radiographic responses”. Also, the dose-limiting toxicities entry in data set [1] is “both proteinuria and fatigue were dose-limiting (Grade 3)”.

Consider `CONC(=O)c1ccccc1Nc1cc(Nc2cc(C)nn2C(C)C)ncc1Cl` [GSK2256098], for which the objective radiographic responses result in the data set with advanced solid tumors (phase 1 ref 15) was “No objective radiographic responses”.

Turning to `CNC(=O)c1ccccc1Nc1cc(Nc2ccc(N3CCOCC3)cc2OC)ncc1C(F)(F)F` [VS-4718], the “effect on Tregs and CD8 + T cell-mediated anti-tumor response” value in data set [2] was “drives depletion of Tregs and promotes a CD8 + T cell-mediated anti-tumor response”.

On to `CN(c1ncccc1CNc1nc(Nc2ccc3c(c2)CC(=O)N3)ncc1C(F)(F)F)S(C)(=O)=O` [PF-00562271], for which, in the data set on advanced solid tumors (phase 1 ref 10), the objective radiographic responses entry is “No objective radiographic responses”.
